Measured values published in ChEMBL document CHEMBL4680170, “Anticancer activity of 4'-phenyl-2,2':6',2″-terpyridines - behind the metal complexation” (Eur J Med Chem, 2020).
Each block holds one compound with its values, some of them ahead of it. Calls of active or inactive are those of the source. No cut-off for these calls is given here.

How the values were obtained:
PANC-1 = experiment: Antiproliferative activity against human PANC-1 cells assessed as reduction in cell viability measured after 72 hrs by MTS assay; type: functional, cell-based; settings: PANC-1, 72 h
Calf thymus DNA [1] = experiment: Binding affinity to calf thymus DNA assessed as DNA intercalation by measuring hypochromic shift incubated for 1.5 hrs by spectrophotometric analysis; type: tissue-based; settings: Bos taurus
MCF7 [2] = experiment: Antiproliferative activity against human MCF-7 cells assessed as reduction in cell viability measured after 72 hrs by MTS assay; type: functional, cell-based; settings: MCF7, 72 h
A549 = experiment: Antiproliferative activity against human A549 cells assessed as reduction in cell viability measured after 72 hrs by MTS assay; type: functional, cell-based; settings: A549, 72 h
U-251 = experiment: Antiproliferative activity against human U251 cells assessed as reduction in cell viability measured after 72 hrs by MTS assay; type: functional, cell-based; settings: U-251, 72 h
MCF7 [3] = experiment: Induction of cell cycle arrest in human MCF-7 cells assessed as accumulation at G2/M phase at 1 uM incubated for 24 hrs by Muse cell analyzer based flow cytometry (reference value: 36.9%); type: functional
NHDF = experiment: Cytotoxicity against human NHDF cells assessed as reduction in cell viability measured after 72 hrs by MTS assay; type: cell-based
MCF7 [4] = experiment: Potency index, ratio of oxaliplatin IC50 to test compound IC50 for anticancer activity against human MCF7 cells measured after 72 hrs by MTS assay; type: functional
MCF7 [5] = experiment: Potency index, ratio of doxorubicin IC50 to test compound IC50 for anticancer activity against human MCF7 cells measured after 72 hrs by MTS assay; type: functional
MCF7 [6] = experiment: Induction of apoptosis in human MCF-7 cells assessed as proportion of late apoptotic cells at 2.5 uM incubated for 48 hrs by Annexin V Muse cell analyzer based flow cytometry (reference value: 2.3%); type: functional
MCF7 [7] = experiment: Induction of apoptosis in human MCF-7 cells assessed as proportion of early apoptotic cells at 1 uM incubated for 48 hrs by Annexin V Muse cell analyzer based flow cytometry (reference value: 3.05%); type: functional
MCF7 [8] = experiment: Induction of apoptosis in human MCF-7 cells assessed as proportion of necrotic cells at 5 uM incubated for 48 hrs by Annexin V Muse cell analyzer based flow cytometry (reference value: 0.45%); type: functional
MCF7 [9] = experiment: Antiproliferative activity against human MCF-7 cells assessed as reduction in cell viability measured after 72 hrs in presence of CdSO4 by MTS assay; type: functional, cell-based; settings: MCF7, 72 h
[10] = Drug uptake in human MCF7 cells mitochondria at 25 uM incubated for 2 hrs by MitoTracker Orange/LysoTracker staining based fluorescence microscopy; type: ADME; settings: mcf7, 2 h
MCF7 [11] = experiment: Antiproliferative activity against human MCF-7 cells assessed as reduction in cell viability at 0.1 uM measured after 72 hrs in presence of FeSO4 by MTS assay; type: functional, cell-based
MCF7 [12] = experiment: Antiproliferative activity against human MCF-7 cells assessed as reduction in cell viability at 0.1 uM measured after 72 hrs in presence of CuSO4 by MTS assay; type: functional, cell-based
MCF7 [13] = experiment: Induction of apoptosis in human MCF-7 cells assessed as proportion of early apoptotic cells at 5 uM incubated for 48 hrs by Annexin V Muse cell analyzer based flow cytometry (reference value: 3.05%); type: functional
MCF7 [14] = experiment: Induction of apoptosis in human MCF7 cells assessed as late apoptotic cells by measuring condensed and fragmented nuclei formation at 5 uM incubated for 24 hrs by AO/EB staining based fluorescence microscopy; type: functional, cell-based
MCF7 [15] = experiment: Induction of cell cycle arrest in human MCF-7 cells assessed as accumulation at G2/M phase at 5 uM incubated for 24 hrs by Muse cell analyzer based flow cytometry (reference value: 36.9%); type: functional
DNA [16] = experiment: Induction of Escherichia coli supercoiled pUC19 plasmid DNA cleavage assessed as linear form formation at 50 uM incubated for 60 mins by agarose gel electrophoresis analysis; type: nucleic-acid assay
MCF7 [17] = experiment: Induction of cell cycle arrest in human MCF-7 cells assessed as accumulation at G0/G1 phase at 1 uM incubated for 24 hrs by Muse cell analyzer based flow cytometry (reference value: 47.4%); type: functional
HCT-116 = experiment: Antiproliferative activity against human HCT 116 cells assessed as reduction in cell viability measured after 72 hrs by MTS assay; type: functional, cell-based; settings: HCT-116, 72 h
MCF7 [18] = experiment: Induction of apoptosis in human MCF-7 cells assessed as proportion of necrotic cells at 1 uM incubated for 48 hrs by Annexin V Muse cell analyzer based flow cytometry (reference value: 0.45%); type: functional
MCF7 [19] = experiment: Induction of apoptosis in human MCF-7 cells assessed as proportion of viable cells at 2.5 uM incubated for 48 hrs by Annexin V Muse cell analyzer based flow cytometry (reference value: 94.2%); type: functional
MCF7 [20] = experiment: Induction of apoptosis in human MCF-7 cells assessed as proportion of late apoptotic cells at 1 uM incubated for 48 hrs by Annexin V Muse cell analyzer based flow cytometry (reference value: 2.3%); type: functional
MCF7 [21] = experiment: Induction of apoptosis in human MCF7 cells assessed as cytochrome c release into cytosol at 2.5 uM incubated for 24 hrs by immunoblot analysis; type: functional, cell-based
MCF7 [22] = experiment: Antiproliferative activity against human MCF-7 cells assessed as reduction in cell viability at 0.1 uM measured after 72 hrs in presence of CdSO4 by MTS assay; type: functional, cell-based
MCF7 [23] = experiment: Induction of apoptosis in human MCF-7 cells incubated for 48 hrs by Annexin V Muse cell analyzer based flow cytometry; type: functional; settings: dose 1-5 µM
MCF7 [24] = experiment: Antiproliferative activity against human MCF-7 cells assessed as reduction in cell viability measured after 72 hrs in presence of CuSO4 by MTS assay; type: functional, cell-based; settings: MCF7, 72 h
MCF7 [25] = experiment: Induction of cell cycle arrest in human MCF-7 cells assessed as increase in cell accumulation at G0/G1 phase incubated for 24 hrs by Muse cell analyzer based flow cytometry; type: functional; settings: dose 1-5 µM
MCF7 [26] = experiment: Induction of cell cycle arrest in human MCF-7 cells assessed as accumulation at S phase at 5 uM incubated for 24 hrs by Muse cell analyzer based flow cytometry (reference value: 11.1%); type: functional
MCF7 [27] = experiment: Induction of apoptosis in human MCF7 cells assessed as decrease in p21 expression at 2.5 uM incubated for 24 hrs by immunoblot analysis; type: functional, cell-based
MCF7 [28] = experiment: Antiproliferative activity against human MCF-7 cells assessed as reduction in cell viability measured after 72 hrs in presence of ZnCl2 by MTS assay; type: functional, cell-based; settings: MCF7, 72 h
MCF7 [29] = experiment: Antiproliferative activity against human MCF-7 cells assessed as reduction in cell viability at 0.1 uM measured after 72 hrs in presence of ZnCl2 by MTS assay; type: functional, cell-based
MCF7 [30] = experiment: Induction of cell cycle arrest in human MCF-7 cells assessed as accumulation at S phase at 2.5 uM incubated for 24 hrs by Muse cell analyzer based flow cytometry (reference value: 11.1%); type: functional
MCF7 [31] = experiment: Induction of ROS generation in human MCF7 cells at 1 uM measured after 1 hr by CellRox Green reagent/Hoechst 33342 staining based fluorescence analysis; type: functional, cell-based
MCF7 [32] = experiment: Induction of apoptosis in human MCF-7 cells assessed as proportion of viable cells at 1 uM incubated for 48 hrs by Annexin V Muse cell analyzer based flow cytometry (reference value: 94.2%); type: functional
DNA [33] = experiment: Induction of Escherichia coli supercoiled pUC19 plasmid DNA cleavage assessed as open circular form formation at 50 uM incubated for 60 mins by agarose gel electrophoresis analysis; type: nucleic-acid assay
MCF7 [34] = experiment: Induction of cell cycle arrest in human MCF-7 cells assessed as accumulation at S phase at 1 uM incubated for 24 hrs by Muse cell analyzer based flow cytometry (reference value: 11.1%); type: functional
MCF7 [35] = experiment: Induction of apoptosis in human MCF7 cells assessed as increase in AIP protein expression at 2.5 uM incubated for 24 hrs by immunoblot analysis; type: functional, cell-based
MCF7 [36] = experiment: Antiproliferative activity against human MCF-7 cells assessed as reduction in cell viability at 0.1 uM measured after 72 hrs in presence of FeCl3 by MTS assay; type: functional, cell-based
MCF7 [37] = experiment: Induction of cell cycle arrest in human MCF-7 cells assessed as accumulation at G0/G1 phase at 2.5 uM incubated for 24 hrs by Muse cell analyzer based flow cytometry (reference value: 47.4%); type: functional
MCF7 [38] = experiment: Induction of cell cycle arrest in human MCF-7 cells assessed as accumulation at G0/G1 phase at 5 uM incubated for 24 hrs by Muse cell analyzer based flow cytometry (reference value: 47.4%); type: functional
Calf thymus DNA [39] = experiment: Binding affinity to calf thymus DNA assessed as DNA intercalation by measuring bathochromic shift incubated for 1.5 hrs by spectrophotometric analysis; type: tissue-based; settings: Bos taurus
MCF7 [40] = experiment: Induction of apoptosis in human MCF7 cells assessed as p53 activation at 2.5 uM incubated for 24 hrs by immunoblot analysis; type: functional, cell-based
MCF7 [41] = experiment: Induction of cell cycle arrest in human MCF-7 cells assessed as accumulation at G2/M phase at 2.5 uM incubated for 24 hrs by Muse cell analyzer based flow cytometry (reference value: 36.9%); type: functional
MCF7 [42] = experiment: Induction of apoptosis in human MCF-7 cells assessed as proportion of viable cells at 5 uM incubated for 48 hrs by Annexin V Muse cell analyzer based flow cytometry (reference value: 94.2%); type: functional
MCF7 [43] = experiment: Induction of apoptosis in human MCF-7 cells assessed as proportion of late apoptotic cells at 5 uM incubated for 48 hrs by Annexin V Muse cell analyzer based flow cytometry (reference value: 2.3%); type: functional
MCF7 [44] = experiment: Induction of ROS generation in human MCF7 cells at 1 uM measured after 24 hrs by CellRox Green reagent/Hoechst 33342 staining based fluorescence analysis relative to control; type: functional
MCF7 [45] = experiment: Induction of apoptosis in human MCF7 cells assessed as early apoptotic cells by measuring chromatin condensation and nuclear fragmentation at 5 uM incubated for 24 hrs by AO/EB staining based fluorescence microscopy; type: functional, cell-based
MCF7 [46] = experiment: Antiproliferative activity against human MCF-7 cells assessed as reduction in cell viability measured after 72 hrs in presence of FeCl3 by MTS assay; type: functional, cell-based; settings: MCF7, 72 h
MCF7 [47] = experiment: Induction of apoptosis in human MCF-7 cells assessed as proportion of early apoptotic cells at 2.5 uM incubated for 48 hrs by Annexin V Muse cell analyzer based flow cytometry (reference value: 3.05%); type: functional
MCF7 [48] = experiment: Induction of apoptosis in human MCF-7 cells assessed as proportion of necrotic cells at 2.5 uM incubated for 48 hrs by Annexin V Muse cell analyzer based flow cytometry (reference value: 0.45%); type: functional
MCF7 [49] = experiment: Antiproliferative activity against human MCF-7 cells assessed as reduction in cell viability measured after 72 hrs in presence of FeSO4 by MTS assay; type: functional, cell-based; settings: MCF7, 72 h

IC50 (PANC-1): 730 nM
IC50 (MCF7 [2]): 410 nM
IC50 (A549): 1060 nM
IC50 (U-251): 50 nM
SMILES: COc1cccc2c1C(=O)c1c(O)c3c(c(O)c1C2=O)C[C@@](O)(C(=O)CO)C[C@@H]3O[C@H]1C[C@H](N)[C@H](O)[C@H](C)O1 [DOXORUBICIN]
Activity (Calf thymus DNA [1]): 34.2%

IC50 (MCF7 [9]): 1000 nM
Drug uptake [10]: Active
IC50 (PANC-1; read-out: IC50): 440 nM
Activity (DNA [16]): Active
IC50 (HCT-116): 270 nM
IC50 (MCF7 [2]): 40 nM
IC50 (MCF7 [24]): 39 nM
IC50 (MCF7 [28]): 1000 nM
IC50 (A549): 750 nM
Activity (DNA [33]): Active
IC50 (U-251): 140 nM
IC50 (MCF7 [46]): 1000 nM
IC50 (MCF7 [49]): 1000 nM
SMILES: CCCCCCCCCCn1cc(-c2ccc(-c3cc(-c4ccccn4)nc(-c4ccccn4)c3)cc2)nn1
Activity (MCF7 [3]): 34.3%
IC50 (NHDF): 20800 nM
Ratio IC50 (MCF7 [4]): 26
Ratio IC50 (MCF7 [5]): 10
Activity (MCF7 [6]): 16.25%
Activity (MCF7 [7]): 3.45%
Activity (MCF7 [8]): 6.9%
Activity (MCF7 [11]): Active
Activity (MCF7 [12]): Active
Activity (MCF7 [13]): 30.2%
Activity (MCF7 [14]): Active
Activity (MCF7 [15]): 24%
Activity (MCF7 [17]): 45.5%
Activity (MCF7 [18]): 8.9%
Activity (MCF7 [19]): 69.9%
Activity (MCF7 [20]): 8.55%
Activity (MCF7 [21]): Active
Activity (Calf thymus DNA [1]): 18.2%
Activity (MCF7 [22]): Active
Activity (MCF7 [23]): Dose-dependent effect
Activity (MCF7 [25]): Dose-dependent effect
Activity (MCF7 [26]): 14.3%
Activity (MCF7 [27]): Active
Activity (MCF7 [29]): Active
Activity (MCF7 [30]): 13.7%
Activity (MCF7 [31]): Active
Activity (MCF7 [32]): 79.1%
Activity (MCF7 [34]): 16.3%
Activity (MCF7 [35]): Active
Activity (MCF7 [36]): Active
Activity (MCF7 [37]): 57.4%
Activity (MCF7 [38]): 66.2%
Activity (Calf thymus DNA [39]): Active
Activity (MCF7 [40]): inactive
Activity (MCF7 [41]): 25.2%
Activity (MCF7 [42]): 47.6%
Activity (MCF7 [43]): 15.3%
Activity (MCF7 [44]): 140%
Activity (MCF7 [45]): Active
Activity (MCF7 [47]): 8.95%
Activity (MCF7 [48]): 4.9%
